Test results: patent US20240174690A1, “ANNULATED 2-AMINO-3-CYANO THIOPHENES AND DERIVATIVES FOR THE TREATMENT OF CANCER” (BOEHRINGER INGELHEIM INTERNATIONAL GMBH, priority 2021, published 2024)
Values after ≈ are worked out from the molar mass of the structure shown. Like-named read-outs stand apart in the source and are kept apart here.

Key:
SAS cells = assay: SAS CTG proliferation assay (120 h) (HNSCC, wt amplified); assay type: cell-based
Description: SAS CTG Proliferation Assay (120 h) (HNSCC, Wt Amplified)
SAS cells (JCRB0260) are dispensed into 384-well plates, flat and clear bottom (Greiner, PNr. 781091) at a density of 300 cells per well in 60 μL DMEM:F12 (Gibco 31330-038)+10% Fetal Calf Serum (HyClone, PNr.: SH30084.03) and incubated at 37° C. in a CO2 incubator overnight. The next day, compounds (10 mM stock in DMSO) are added with the ECHO acoustic liquid handler system (Beckman Coulter), including DMSO controls. Plates are incubated for 120 h, and cell viability is measured using CellTiter-Glo luminescent cell viability reagent (Promega product code G7570). Viability (stated as percent of control) is defined as relative luminescence units RLU of each well divided by the RLU of cells in DMSO controls. IC50 values are determined from viability measurements by non-linear regression using a four-parameter model.

AsPC-1 cells = assay: AsPC-1 CTG proliferation assay (120 h) (pancreatic cancer, G12D); assay type: cell-based; settings: Homo sapiens, ASPC1
Description: AsPC-1 CTG Proliferation Assay (120 h) (Pancreatic Cancer, G12D)
The CTG assay is designed to measure quantitatively the proliferation of AsPC-1 cells (ATCC […]), using the CellTiter Glow Assay Kit (Promega G7571). Cells are grown in RPMI medium (ATCC) supplemented with Fetal Calf Serum (Life Technologies, Gibco BRL, Cat. No. 10270-106). On “day 0” 2000 AsPC-1 cells are seeded in 60 μL RPMI ATCC+10% FCS+Penstrep in a 384-well plate, flat and clear bottom (Greiner, PNr. 781091). Cells are then incubated in the plates at 37° C. in a CO2 incubator overnight. On day 1, compounds (10 mM stock in DMSO) are added with the ECHO acoustic liquid handler system (Beckman Coulter), including DMSO controls. Plates are incubated for 120 h, and cell viability is measured using CellTiter-Glo luminescent cell viability reagent (Promega product code G7570). Viability (stated as percent of control) is defined as relative luminescence units RLU of each well divided by the RLU of cells in DMSO controls. IC50 values are determined from viability measurements by non-linear regression using a four-parameter model.

[1] = Caco-2 assay (permeability PappAB, PappBA, efflux ratio); assay type: in vitro ADME; settings: human, Caco-2, 10 μM test compound, pH 7.4; for Papp A→B at 90 min, 10 μM: apical to basolateral; for efflux ratio at 90 min, 10 μM: efflux ratio PappBA/PappAB, read-out: Caco ER
Text: The assay provides information on the potential of a compound to pass the cell membrane, on the extent of oral absorption as well as on whether the compound is actively transported by uptake and/or efflux transporters. Permeability measurements across polarized, confluent Caco-2 cell monolayers grown on permeable filter supports (Corning, catalog #3391) are used. […] The receiver and donor compartments contain 0.25% bovine serum albumine (BSA) in assay buffer. Passive diffusion and/or active transport of compounds across the monolayer is measured in both apical to basolateral (a-b) and basolateral to apical (b-a) direction. a-b permeability (PappAB) represents drug absorption from the intestine into the blood and b-a permeability (PappBA) drug secretion from the blood back into the intestine via both passive permeability as well as active transport mechanisms mediated by efflux and uptake transporters that are expressed on the Caco-2 cells. After a pre-incubation of 25-30 min at 37° C., at predefined time points (0, 30, 60 and 90 min), samples were taken from the receiver and donor compartment, respectively. Concentrations of test compounds in samples were measured by HPLC/MS/MS, samples from the donor compartment were diluted 1:50 (v:v) with assay buffer, samples from receiver compartment were measured without dilution.
Apparent permeabilities in a-b (PappAB) and b-a (PappBA) directions are calculated according to the formula:
[formula] • Vrec [mL]: buffer volume in receiver compartment • Cdon [μmol/mL]: concentration of test compound in donor compartment at t=0 • ΔCrec: difference between concentrations of test compound in receiver compartment at start and end of incubation time • Δt: Incubation time • Vrec·ΔCrec/Δt [μmol/min]: Amount of compound transferred to receiver compartment per time • A [cm^2]: filter surface
Caco-2 efflux ratios (ER) are calculated as the ratio of PappBA/PappAB.

[2] = test system: KRAS G12D-dependent Ba/F3 cells; assay: Ba/F3 proliferation assay, KRAS G12D; assay type: cell-based; settings: Mus musculus, BaF3, 72 h, AlamarBlue
Method in brief: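 Viability is measured as AlamarBlue fluorescence in Ba/F3 cells that depend on a transduced mutant KRAS isoform for growth without IL-3. Each treatment is run in technical duplicate, and dose-response curves are fitted.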

[3] = Solubility measurement (DMSO solution method), McIlvaine buffer pH 4.5 or 6.8; assay type: physicochemical; settings: aqueous buffer, kinetic from dmso stock, DMSO stock diluted to 250 μM, 24 h shaking at ambient temperature
Method in brief: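 DMSO stock diluted into McIlvaine buffer, pH 4.5 or 6.8, to 250 µM final, shaken 24 h at ambient temperature. Precipitate removed by filtration; filtrate quantified by LC-UV against a fully dissolved reference in acetonitrile/water 1:1.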

[4] = McIlvaine buffer pH 4.5, read-out: solubility pH 4.5
[5] = McIlvaine buffer pH 6.8, read-out: solubility pH 6.8

## COCc1cn(-c2cc(O[C@@H](C)[C@@H]3CCCN3C)nc(-c3noc4c3CCC[C@@]43CCCc4sc(N)c(C#N)c43)n2)nn1 [II-121]
SAS cells
  IC50: 560 nM
AsPC-1 cells
  IC50: 3070 nM
[1]
  Papp A→B at 90 min, 10 μM: 6.3 ×10⁻⁶ cm/s
  efflux ratio at 90 min, 10 μM: 3.7
[2]
  IC50: 77 nM
[3]; [4]
  solubility at 24 h: 109 µg/mL (≈ 181 µM)
[3]; [5]
  solubility at 24 h: 69 µg/mL (≈ 115 µM)

## C[C@H](Oc1cc(-c2ccccn2)nc(-c2noc3c2CCC[C@@]32CCCc3sc(N)c(C#N)c32)n1)[C@@H]1CCCN1C [II-85]
SAS cells
  IC50: 26 nM
AsPC-1 cells
  IC50: 1290 nM
[1]
  efflux ratio at 90 min, 10 μM: 1.2
[2]
  IC50: 72 nM
[3]; [4]
  solubility at 24 h: 38 µg/mL (≈ 66.9 µM)
[3]; [5]
  solubility at 24 h: 3 µg/mL (≈ 5.28 µM)

## CO[C@@H]1C[C@@H]([C@H](C)Oc2cc(-c3ccn(C4COC4)n3)nc(-c3noc4c3CCC[C@@]43CCCc4sc(N)c(C#N)c43)n2)N(C)C1 [II-107]
SAS cells
  IC50: 7 nM
AsPC-1 cells
  IC50: 7270 nM
[1]
  Papp A→B at 90 min, 10 μM: 10 ×10⁻⁶ cm/s
  efflux ratio at 90 min, 10 μM: 2.4
[2]
  IC50: 19 nM
[3]; [4]
  solubility at 24 h: > 162 µg/mL
[3]; [5]
  solubility at 24 h: < 1 µg/mL

## C[C@H](Oc1cc(-c2ccn(C[C@@H](C)O)n2)nc(-c2noc3c2CCC[C@@]32CCCc3sc(N)c(C#N)c32)n1)[C@@H]1CCCN1C [II-117]
SAS cells
  IC50: 22 nM
AsPC-1 cells
  IC50: 1660 nM
[1]
  Papp A→B at 90 min, 10 μM: 1.4 ×10⁻⁶ cm/s
  efflux ratio at 90 min, 10 μM: 20.7
[2]
  IC50: 36 nM
[3]; [4]
  solubility at 24 h: > 183 µg/mL
[3]; [5]
  solubility at 24 h: > 147 µg/mL

## C[C@H](Oc1cc(-c2cnn(C)n2)nc(-c2noc3c2CCC[C@@]32CCCc3sc(N)c(C#N)c32)n1)[C@@H]1CCCN1C [II-86]
SAS cells
  IC50: 502 nM
AsPC-1 cells
  IC50: 4140 nM
[1]
  Papp A→B at 90 min, 10 μM: 12 ×10⁻⁶ cm/s
  efflux ratio at 90 min, 10 μM: 0.8
[2]
  IC50: 59 nM
[3]; [4]
  solubility at 24 h: 112 µg/mL (≈ 196 µM)
[3]; [5]
  solubility at 24 h: 60 µg/mL (≈ 105 µM)

## C[C@H](Oc1cc(N2CCC[C@@H](O)C2)nc(-c2noc3c2CCC[C@@]32CCCc3sc(N)c(C#N)c32)n1)[C@@H]1CCCN1C [II-59]
SAS cells
  IC50: 31 nM
AsPC-1 cells
  IC50: 2240 nM
[1]
  Papp A→B at 90 min, 10 μM: 0.9 ×10⁻⁶ cm/s
  efflux ratio at 90 min, 10 μM: 37.2
[2]
  IC50: 35 nM
[3]; [4]
  solubility at 24 h: > 133 µg/mL
[3]; [5]
  solubility at 24 h: > 123 µg/mL

## C[C@H](Oc1cc(-c2cccc(CO)c2)nc(-c2noc3c2CCC[C@@]32CCCc3sc(N)c(C#N)c32)n1)[C@@H]1CCCN1C [II-97]
SAS cells
  IC50: 646 nM
AsPC-1 cells
  IC50: 2360 nM
[1]
  Papp A→B at 90 min, 10 μM: < 9.7 ×10⁻⁶ cm/s
[2]
  IC50: 198 nM
[3]; [4]
  solubility at 24 h: 40 µg/mL (≈ 67 µM)
[3]; [5]
  solubility at 24 h: < 1 µg/mL

## C[C@H](Oc1cc(-n2cc(-c3cccnc3)nn2)nc(-c2noc3c2CCC[C@@]32CCCc3sc(N)c(C#N)c32)n1)[C@@H]1CCCN1C [II-123]
SAS cells
  IC50: 113 nM
AsPC-1 cells
  IC50: 1540 nM
[1]
  efflux ratio at 90 min, 10 μM: 4.6
[2]
  IC50: 93 nM
[3]; [4]
  solubility at 24 h: < 1 µg/mL
[3]; [5]
  solubility at 24 h: < 1 µg/mL

## C[C@H](Oc1cc(-c2cncnc2)nc(-c2noc3c2CCC[C@@]32CCCc3sc(N)c(C#N)c32)n1)[C@@H]1CCCN1C [II-82]
SAS cells
  IC50: 990 nM
AsPC-1 cells
  IC50: 5450 nM
[1]
  Papp A→B at 90 min, 10 μM: 2.5 ×10⁻⁶ cm/s
  efflux ratio at 90 min, 10 μM: 9.2
[2]
  IC50: 200 nM
[3]; [4]
  solubility at 24 h: 102 µg/mL (≈ 179 µM)
[3]; [5]
  solubility at 24 h: 72 µg/mL (≈ 127 µM)

## C[C@H](Oc1cc(-c2ccn(C)n2)nc(-c2noc3c2CCC[C@@]32CCCc3sc(N)c(C#N)c32)n1)[C@@H]1CCCN1C [II-96]
SAS cells
  IC50: 148 nM
AsPC-1 cells
  IC50: 2240 nM
[1]
  Papp A→B at 90 min, 10 μM: 6.5 ×10⁻⁶ cm/s
  efflux ratio at 90 min, 10 μM: 7.3
[2]
  IC50: 23 nM
[3]; [4]
  solubility at 24 h: 107 µg/mL (≈ 187 µM)
[3]; [5]
  solubility at 24 h: 2 µg/mL (≈ 3.5 µM)

## C[C@H](Oc1cc(-n2ccc(Br)n2)nc(-c2noc3c2CCC[C@@]32CCCc3sc(N)c(C#N)c32)n1)[C@@H]1CCCN1C [II-110]
SAS cells
  IC50: 68 nM
AsPC-1 cells
  IC50: 2820 nM
[1]
  efflux ratio at 90 min, 10 μM: 0.5
[2]
  IC50: 51 nM
[3]; [4]
  solubility at 24 h: 3 µg/mL (≈ 4.72 µM)
[3]; [5]
  solubility at 24 h: < 1 µg/mL

## C[C@H](Oc1cc(C2CCOCC2)nc(-c2noc3c2CCC[C@@]32CCCc3sc(N)c(C#N)c32)n1)[C@@H]1CCCN1C [II-76]
SAS cells
  IC50: 66 nM
AsPC-1 cells
  IC50: 3970 nM
[1]
  Papp A→B at 90 min, 10 μM: 6.5 ×10⁻⁶ cm/s
  efflux ratio at 90 min, 10 μM: 3.7
[2]
  IC50: 30 nM
[3]; [4]
  solubility at 24 h: > 122 µg/mL
[3]; [5]
  solubility at 24 h: 104 µg/mL (≈ 181 µM)

## C[C@H](Oc1cc(N2CCNC3(CC3)C2)nc(-c2onc3c2CCC[C@@]32CCCc3sc(N)c(C#N)c32)n1)[C@@H]1CCCN1C [I-5]
SAS cells
  IC50: 2040 nM
AsPC-1 cells
  IC50: 86 nM
[1]
  Papp A→B at 90 min, 10 μM: 1.1 ×10⁻⁶ cm/s
  efflux ratio at 90 min, 10 μM: 29
[2]
  IC50: 3 nM
[3]; [4]
  solubility at 24 h: > 138 µg/mL
[3]; [5]
  solubility at 24 h: > 123 µg/mL

## C[C@H](Oc1cc(-n2ccnc2)nc(-c2noc3c2CCC[C@@]32CCCc3sc(N)c(C#N)c32)n1)[C@@H]1CCCN1C [II-69]
SAS cells
  IC50: 102 nM
AsPC-1 cells
  IC50: 1730 nM
[1]
  Papp A→B at 90 min, 10 μM: 4.1 ×10⁻⁶ cm/s
  efflux ratio at 90 min, 10 μM: 5.4
[2]
  IC50: 26 nM
[3]; [4]
  solubility at 24 h: 108 µg/mL (≈ 194 µM)
[3]; [5]
  solubility at 24 h: 76 µg/mL (≈ 137 µM)

## C[C@H](Oc1cc(N2CCC(C#N)C2)nc(-c2noc3c2CCC[C@@]32CCCc3sc(N)c(C#N)c32)n1)[C@@H]1CCCN1C (some centres unmarked) [II-99]
SAS cells
  IC50: 88 nM
AsPC-1 cells
  IC50: 3240 nM
[1]
  Papp A→B at 90 min, 10 μM: 1.1 ×10⁻⁶ cm/s
  efflux ratio at 90 min, 10 μM: 23.6
[2]
  IC50: 83 nM
[3]; [4]
  solubility at 24 h: 115 µg/mL (≈ 197 µM)
[3]; [5]
  solubility at 24 h: 84 µg/mL (≈ 144 µM)
